Legend:
Parameters in all cases: dosed compound name [14C]Casopitant, route oral
Details in all cases: in vivo
[1] = tested on: Lung; test: Drug level in Sprague-Dawley rat lung assessed as free base level at 60 mg/kg/day, po administered as repeat dose measured after 24 hrs on day 20; type: ADME, organism-based
[2] = tested on: Liver; test: Drug level in beagle dog liver assessed as free base level at 40 mg/kg/day, po administered as repeat dose measured after 24 hrs on day 14; type: ADME, organism-based, Canis lupus familiaris
[3] = Drug level in beagle dog blood assessed as free base level at 40 mg/kg/day, po administered as repeat dose measured after 24 hrs on day 14; type: ADME, organism-based, Canis lupus familiaris
[4] = tested on: Liver; test: Drug level in Sprague-Dawley rat liver assessed as free base level at 60 mg/kg/day, po administered as repeat dose measured after 24 hrs on day 27; type: ADME, organism-based
[5] = tested on: Lung; test: Drug level in Sprague-Dawley rat lung assessed as free base level at 60 mg/kg/day, po administered as single dose measured after 24 hrs on day 1; type: ADME, organism-based
[6] = tested on: Plasma; test: Drug level in beagle dog plasma assessed as free base level at 40 mg/kg/day, po administered as single dose measured after 2 hrs on day 1; type: ADME, organism-based, Canis lupus familiaris
[7] = tested on: Liver; test: Drug level in Sprague-Dawley rat liver assessed as free base level at 60 mg/kg/day, po administered as repeat dose measured after 24 hrs on day 20; type: ADME, organism-based
[8] = tested on: Plasma; test: Drug level in Sprague-Dawley rat plasma assessed as free base level at 60 mg/kg/day, po administered as single dose measured after 2 hrs on day 1; type: ADME, organism-based
[9] = Drug level in Sprague-Dawley rat skeletal muscle assessed as free base level at 60 mg/kg/day, po administered as repeat dose measured after 24 hrs on day 40; type: ADME, organism-based, Muscle tissue
[10] = tested on: Kidney; test: Drug level in Sprague-Dawley rat kidney assessed as free base level at 60 mg/kg/day, po administered as repeat dose measured after 24 hrs on day 40; type: ADME, organism-based
[11] = Drug level in beagle dog kidney assessed as free base level at 40 mg/kg/day, po administered as repeat dose measured after 24 hrs on day 34; type: ADME, organism-based, Canis lupus familiaris
[12] = tested on: Blood; test: Drug level in Sprague-Dawley rat blood assessed as free base level at 60 mg/kg/day, po administered as repeat dose measured after 24 hrs on day 40; type: ADME, organism-based
[13] = Drug level in beagle dog lung assessed as free base level at 40 mg/kg/day, po administered as repeat dose measured after 24 hrs on day 34; type: ADME, organism-based, Canis lupus familiaris
[14] = Drug level in beagle dog myocardium assessed as free base level at 40 mg/kg/day, po administered as repeat dose measured after 24 hrs on day 34; type: ADME, organism-based, Canis lupus familiaris
[15] = Drug level in beagle dog blood assessed as free base level at 40 mg/kg/day, po administered as single dose measured after 2 hrs on day 1; type: ADME, organism-based, Canis lupus familiaris
[16] = tested on: Plasma; test: Drug level in beagle dog plasma assessed as free base level at 40 mg/kg/day, po administered as repeat dose measured after 2 hrs on day 14; type: ADME, organism-based, Canis lupus familiaris
[17] = tested on: Lung; test: Drug level in Sprague-Dawley rat lung assessed as free base level at 60 mg/kg/day, po administered as repeat dose measured after 24 hrs on day 27; type: ADME, organism-based
[18] = Drug level in Sprague-Dawley rat myocardium assessed as free base level at 60 mg/kg/day, po administered as repeat dose measured after 24 hrs on day 20; type: ADME, organism-based
[19] = Drug level in Sprague-Dawley rat skeletal muscle assessed as free base level at 60 mg/kg/day, po administered as repeat dose measured after 24 hrs on day 20; type: ADME, organism-based, Muscle tissue
[20] = tested on: Blood; test: Drug level in Sprague-Dawley rat blood assessed as free base level at 60 mg/kg/day, po administered as repeat dose measured after 24 hrs on day 27; type: ADME, organism-based
[21] = tested on: Blood; test: Drug level in Sprague-Dawley rat blood assessed as free base level at 60 mg/kg/day, po administered as repeat dose measured after 24 hrs on day 20; type: ADME, organism-based
[22] = tested on: Plasma; test: Drug level in Sprague-Dawley rat plasma assessed as free base level at 60 mg/kg/day, po administered as single dose measured after 24 hrs on day 1; type: ADME, organism-based
[23] = Drug level in Sprague-Dawley rat myocardium assessed as free base level at 60 mg/kg/day, po administered as repeat dose measured after 24 hrs on day 40; type: ADME, organism-based
[24] = tested on: Plasma; test: Drug level in beagle dog plasma assessed as free base level at 40 mg/kg/day, po administered as repeat dose measured after 24 hrs on day 14; type: ADME, organism-based, Canis lupus familiaris
[25] = Drug level in beagle dog blood assessed as free base level at 40 mg/kg/day, po administered as single dose measured after 24 hrs on day 1; type: ADME, organism-based, Canis lupus familiaris
[26] = Drug level in beagle dog blood assessed as free base level at 40 mg/kg/day, po administered as repeat dose measured after 24 hrs on day 34; type: ADME, organism-based, Canis lupus familiaris
[27] = Drug level in Sprague-Dawley rat skeletal muscle assessed as free base level at 60 mg/kg/day, po administered as repeat dose measured after 24 hrs on day 27; type: ADME, organism-based, Muscle tissue
[28] = tested on: Lung; test: Drug level in Sprague-Dawley rat lung assessed as free base level at 60 mg/kg/day, po administered as repeat dose measured after 24 hrs on day 40; type: ADME, organism-based
[29] = tested on: Liver; test: Drug level in Sprague-Dawley rat liver assessed as free base level at 60 mg/kg/day, po administered as repeat dose measured after 24 hrs on day 40; type: ADME, organism-based
[30] = Drug level in Sprague-Dawley rat myocardium assessed as free base level at 60 mg/kg/day, po administered as single dose measured after 24 hrs on day 1; type: ADME, organism-based
[31] = Drug level in beagle dog myocardium assessed as free base level at 40 mg/kg/day, po administered as repeat dose measured after 24 hrs on day 14; type: ADME, organism-based, Canis lupus familiaris
[32] = tested on: Kidney; test: Drug level in Sprague-Dawley rat kidney assessed as free base level at 60 mg/kg/day, po administered as single dose measured after 24 hrs on day 1; type: ADME, organism-based
[33] = tested on: Plasma; test: Drug level in Sprague-Dawley rat plasma assessed as free base level at 60 mg/kg/day, po administered as single dose measured after 2 hrs on day 20; type: ADME, organism-based
[34] = Drug level in beagle dog skeletal muscle assessed as free base level at 40 mg/kg/day, po administered as repeat dose measured after 24 hrs on day 34; type: ADME, organism-based, Canis lupus familiaris, Muscle tissue
[35] = tested on: Liver; test: Drug level in beagle dog liver assessed as free base level at 40 mg/kg/day, po administered as repeat dose measured after 24 hrs on day 34; type: ADME, organism-based, Canis lupus familiaris
[36] = Drug level in beagle dog kidney assessed as free base level at 40 mg/kg/day, po administered as repeat dose measured after 24 hrs on day 14; type: ADME, organism-based, Canis lupus familiaris
[37] = tested on: Plasma; test: Drug level in Sprague-Dawley rat plasma assessed as free base level at 60 mg/kg/day, po administered as repeat dose measured after 24 hrs on day 20; type: ADME, organism-based
[38] = Drug level in beagle dog skeletal muscle assessed as free base level at 40 mg/kg/day, po administered as repeat dose measured after 24 hrs on day 14; type: ADME, organism-based, Canis lupus familiaris, Muscle tissue
[39] = tested on: Plasma; test: Drug level in Sprague-Dawley rat plasma assessed as free base level at 60 mg/kg/day, po administered as repeat dose measured after 24 hrs on day 40; type: ADME, organism-based
[40] = tested on: Plasma; test: Drug level in Sprague-Dawley rat plasma assessed as free base level at 60 mg/kg/day, po administered as repeat dose measured after 24 hrs on day 27; type: ADME, organism-based
[41] = tested on: Plasma; test: Drug level in beagle dog plasma assessed as free base level at 40 mg/kg/day, po administered as repeat dose measured after 24 hrs on day 34; type: ADME, organism-based, Canis lupus familiaris
[42] = tested on: Liver; test: Drug level in Sprague-Dawley rat liver assessed as free base level at 60 mg/kg/day, po administered as single dose measured after 24 hrs on day 1; type: ADME, organism-based
[43] = tested on: Kidney; test: Drug level in Sprague-Dawley rat kidney assessed as free base level at 60 mg/kg/day, po administered as repeat dose measured after 24 hrs on day 27; type: ADME, organism-based
[44] = Drug level in Sprague-Dawley rat myocardium assessed as free base level at 60 mg/kg/day, po administered as repeat dose measured after 24 hrs on day 27; type: ADME, organism-based
[45] = Drug level in beagle dog lung assessed as free base level at 40 mg/kg/day, po administered as repeat dose measured after 24 hrs on day 14; type: ADME, organism-based, Canis lupus familiaris
[46] = Drug level in Sprague-Dawley rat skeletal muscle assessed as free base level at 60 mg/kg/day, po administered as single dose measured after 24 hrs on day 1; type: ADME, organism-based, Muscle tissue
[47] = tested on: Blood; test: Drug level in Sprague-Dawley rat blood assessed as free base level at 60 mg/kg/day, po administered as single dose measured after 24 hrs on day 1; type: ADME, organism-based
[48] = tested on: Kidney; test: Drug level in Sprague-Dawley rat kidney assessed as free base level at 60 mg/kg/day, po administered as repeat dose measured after 24 hrs on day 20; type: ADME, organism-based
[49] = tested on: Plasma; test: Drug level in beagle dog plasma assessed as free base level at 40 mg/kg/day, po administered as single dose measured after 24 hrs on day 1; type: ADME, organism-based, Canis lupus familiaris
[50] = Drug level in beagle dog blood assessed as free base level at 40 mg/kg/day, po administered as repeat dose measured after 2 hrs on day 14; type: ADME, organism-based, Canis lupus familiaris

CC(=O)N1CCN([C@H]2CCN([14C](=O)N(C)[C@H](C)c3cc(C(F)(F)F)cc(C(F)(F)F)c3)[C@@H](c3ccc(F)cc3C)C2)CC1.CS(=O)(=O)O
Radiolabel recovery [1]: 405 ugequiv/g | Radiolabel recovery [2]: 1050 ugequiv/g | Radiolabel recovery [3]: 35.3 ugequiv/g | Radiolabel recovery [4]: 240 ugequiv/g | Radiolabel recovery [5]: 135 ugequiv/g | Radiolabel recovery [6]: 20.8 ugequiv/g | Radiolabel recovery [7]: 545 ugequiv/g | Radiolabel recovery [8]: 6.06 ugequiv/g | Radiolabel recovery [9]: 7.74 ugequiv/g | Radiolabel recovery [10]: 39.2 ugequiv/g | Radiolabel recovery [11]: 102 ugequiv/g | Radiolabel recovery [12]: 3.63 ugequiv/g | Radiolabel recovery [13]: 345 ugequiv/g | Radiolabel recovery [14]: 96.2 ugequiv/g | Radiolabel recovery [15]: 11.3 ugequiv/g | Radiolabel recovery [16]: 69.5 ugequiv/g | Radiolabel recovery [17]: 136 ugequiv/g | Radiolabel recovery [18]: 79.6 ugequiv/g | Radiolabel recovery [19]: 28.1 ugequiv/g | Radiolabel recovery [20]: 7.67 ugequiv/g | Radiolabel recovery [21]: 14.5 ugequiv/g | Radiolabel recovery [22]: 5.54 ugequiv/g | Radiolabel recovery [23]: 26.7 ugequiv/g | Radiolabel recovery [24]: 49.2 ugequiv/g | Radiolabel recovery [25]: 9.4 ugequiv/g | Radiolabel recovery [26]: 9.95 ugequiv/g | Radiolabel recovery [27]: 10.7 ugequiv/g | Radiolabel recovery [28]: 96.8 ugequiv/g | Radiolabel recovery [29]: 90.4 ugequiv/g | Radiolabel recovery [30]: 34.6 ugequiv/g | Radiolabel recovery [31]: 243 ugequiv/g | Radiolabel recovery [32]: 59.1 ugequiv/g | Radiolabel recovery [33]: 18.5 ugequiv/g | Radiolabel recovery [34]: 21.3 ugequiv/g | Radiolabel recovery [35]: 612 ugequiv/g | Radiolabel recovery [36]: 308 ugequiv/g | Radiolabel recovery [37]: 12.4 ugequiv/g | Radiolabel recovery [38]: 99.2 ugequiv/g | Radiolabel recovery [39]: 0.246 ugequiv/g | Radiolabel recovery [40]: 1.92 ugequiv/g | Radiolabel recovery [41]: 11.6 ugequiv/g | Radiolabel recovery [42]: 121 ugequiv/g | Radiolabel recovery [43]: 64.6 ugequiv/g | Radiolabel recovery [44]: 32.9 ugequiv/g | Radiolabel recovery [45]: 905 ugequiv/g | Radiolabel recovery [46]: 18.3 ugequiv/g | Radiolabel recovery [47]: 5.6 ugequiv/g | Radiolabel recovery [48]: 256 ugequiv/g | Radiolabel recovery [49]: 9.68 ugequiv/g | Radiolabel recovery [50]: 47.4 ugequiv/g

From ChEMBL document CHEMBL3526147, “Tissue distribution and characterization of drug-related material in rats and dogs after repeated oral administration of casopitant” (Drug Metab Dispos, 2011)
